According to article PMC12383022, “Discovery of a Novel Antimicrobial Peptide from Paenibacillus sp. Na14 with Potent Activity Against Gram-Negative Bacteria and Genomic Insights into Its Biosynthetic Pathway” (Antibiotics, 2025):
Read-outs that look alike come from different tables or passages of the source. Where no end group is shown, it is not given here.

Experiments:
P. aeruginosa LMG6395 = conditions: cited from earlier work
E. coli ATCC 25922 = conditions: cited from earlier work
MRSA ATCC 15975 = conditions: cited from earlier work
K. pneumoniae LMG20218 = conditions: cited from earlier work
MRSA = conditions: 10× MIC; cited from earlier work
P. aeruginosa TISTR 357 [1] = assay type: cell-based, Pseudomonas aeruginosa; conditions: TISTR 357, 24 h
Experimental: (§1) A bacterial suspension was prepared by adjusting its turbidity at OD 625 nm to 0.1 and subsequently made a 20-fold dilution using Cation-Adjusted Mueller–Hinton broth (CAHMB) as a diluent. […] The diluted cell suspension (10 µL) was added to each well, and the plates were incubated at 37 °C for 24 h. The CAMHB alone was used as a negative control, while CAMHB containing colistin or vancomycin served as a positive control.

E. coli TISTR 887 [2] = assay type: cell-based, Escherichia coli; conditions: TISTR 887, 24 h
Experimental: as §1

K. pneumoniae TISTR 1383 [3] = test: Time–kill assay; assay type: cell-based, Klebsiella pneumoniae
Experimental: (§2) The cultures were diluted 20-fold using CAMHB. […] The diluted bacterial suspension (10 μL) was mixed into each well before incubating the plates at 37 °C. At predetermined time points, 100 μL of either diluted or undiluted samples from each well were plated on MH agar and incubated at 37 °C for 24 h. Bacterial viability was assessed by colony counting and expressed as log CFU/mL [56].

[4] = system: E. coli TISTR 887, P. aeruginosa TISTR 357, K. pneumoniae TISTR 1383; test: Time–kill kinetic assay, statement for all tested strains; assay type: cell-based; conditions: peptide at 1× MIC
Experimental: as §2

K. pneumoniae TISTR 1383 [5] = conditions: agar well diffusion vs untreated control, mean ± SD, three independent experiments
Experimental: (§3) The purified Na14 AMP was prepared at a concentration of 10× MIC. Thermal stability was assessed by incubating the peptide at 30 °C, 50 °C, 70 °C, and 90 °C for 3 h. pH stability was evaluated by adjusting the peptide solution to pH 3, 5, 7, 9, and 11 using 1 N HCl or 1 N NaOH, followed by incubation at 37 °C for 3 h and subsequent neutralization to the original pH. […] The residual antimicrobial activity of each treatment condition was determined using an agar well diffusion assay against E. coli TISTR 887, P. aeruginosa TISTR 357, and K. pneumoniae TISTR 1383 to cross-validate efficacy across multiple pathogens. The untreated peptide served as a control. Statistical significance was analyzed using one-way ANOVA, with comparisons to the control group considered significant at p-value < 0.05. The results are presented as the percentage of residual antimicrobial activity.

E. coli TISTR 887 [6] = test: Antimicrobial activity of purification fractions (arbitrary units, two-fold dilutions, agar well diffusion); assay type: cell-based, Escherichia coli; conditions: against E. coli TISTR 887
Experimental: Single colonies of the Na14 isolate were resuspended in 0.9% NaCl solution, and the cell suspension was adjusted to an OD of 0.35 at 625 nm. A 2% aliquot of this suspension was inoculated into 196 mL of LB broth and incubated at 37 °C for 24 h. The CFS was collected by centrifugation at 10,000× g for 15 min at 4 °C. Bioactive compounds were then precipitated using stepwise ammonium sulfate precipitation at 25%, 50%, and 75% saturation levels. The active compounds were purified using cation exchange chromatography (CIEX) followed by reversed-phase chromatography (RPC), as described in our previous study. The purified compounds were concentrated using a refrigerated speed vacuum concentrator. The dried samples were reconstituted in deionized water and subjected to two-fold serial dilutions. An aliquot (100 µL) of each dilution was used to evaluate antimicrobial activity using the agar well diffusion method, employing E. coli TISTR 887 as the tested bacteria. The purification efficiency was assessed by calculating antimicrobial activity at each purification stage using the following equation [49]. Antimicrobial activity (arbitrary unit/mL; AU/mL)= 2^n × 1000/V where n represents the reciprocal of the highest two-fold dilution that produces a visible inhibition zone, and V denotes the volume of the sample in µL.

S. aureus TISTR 517 = test: microbe, parasite or virus in culture; assay type: cell-based, Staphylococcus aureus; conditions: TISTR 517, 24 h
Experimental: as §1

MRSA Strain 2468 = test: microbe, parasite or virus in culture; assay type: cell-based, Staphylococcus aureus; conditions: Strain 2468, 24 h
Experimental: as §1

P. aeruginosa TISTR 357 [7] = conditions: agar well diffusion vs untreated control, mean ± SD, three independent experiments
Experimental: as §3

K. pneumoniae TISTR 1383 [8] = assay type: cell-based, Klebsiella pneumoniae; conditions: TISTR 1383, 24 h
Experimental: as §1

P. aeruginosa TISTR 357 [9] = test: Time–kill assay; assay type: cell-based, Pseudomonas aeruginosa
Experimental: as §2

E. coli TISTR 887 [10] = test: SDS-PAGE gel overlay inhibition assay; assay type: cell-based, Escherichia coli; conditions: 15% SDS-PAGE gel overlaid with soft agar containing E. coli TISTR 887; at the position of the peptide band
Experimental: The peptides ([…]) were subjected to analysis using a 15% sodium dodecyl sulfate-polyacrylamide gel electrophoresis (SDS-PAGE). The gel was electrophoresed at a constant voltage of 100 V. One half of the gel was stained using Coomassie brilliant blue G-250 to visualize protein bands, with a molecular weight marker included to facilitate band position comparison. The remaining half was fixed in a solution containing 5% acetic acid and 25% methanol for 30 min, followed by a 3 h wash with distilled water. Subsequently, 18 mL of soft MH agar, including E. coli TISTR 887, was overlaid onto the gel to assess antimicrobial activity by observing inhibition zones after incubation at 37 °C for 24 h.

E. coli TISTR 887 [11] = conditions: agar well diffusion vs untreated control, mean ± SD, three independent experiments
Experimental: as §3

E. coli TISTR 887 [12] = test: Time–kill assay; assay type: cell-based, Escherichia coli
Experimental: as §2

[13] = peptide at 0.5× MIC, growth resumed thereafter until 24 h
[14] = peptide at 1× MIC, CAMHB, 37 °C, LOD 10 CFU/mL
[15] = peptide at 2× MIC, CAMHB, 37 °C, LOD 10 CFU/mL
[16] = peptide at 10× MIC adjusted to pH 3 (1 N HCl or 1 N NaOH), 37 °C, 3 h, then neutralized
[17] = peptide at 10× MIC adjusted to pH 5, 37 °C, 3 h, then neutralized
[18] = peptide at 10× MIC adjusted to pH 7, 37 °C, 3 h, then neutralized
[19] = peptide at 10× MIC adjusted to pH 9, 37 °C, 3 h, then neutralized
[20] = peptide at 10× MIC adjusted to pH 11, 37 °C, 3 h, then neutralized
[21] = peptide at 10× MIC incubated at 30 °C for 3 h
[22] = peptide at 10× MIC incubated at 50 °C for 3 h
[23] = peptide at 10× MIC incubated at 70 °C for 3 h
[24] = peptide at 10× MIC incubated at 90 °C for 3 h

brevibacillin 2V
MIC, P. aeruginosa LMG6395 (P. aeruginosa LMG6395): 64 µg/mL
MIC, E. coli ATCC 25922 (E. coli ATCC 25922): 16 µg/mL
MIC, MRSA ATCC 15975 (MRSA ATCC 15975): 2 µg/mL
MIC, K. pneumoniae LMG20218 (K. pneumoniae LMG20218): 32 µg/mL
time to complete killing of MRSA (MRSA): ≤ 6 h

LALLVVVKVLKYVV [Na14 peptide]
MBC, P. aeruginosa TISTR 357 (P. aeruginosa TISTR 357 [1]): 2 µg/mL
MIC, P. aeruginosa TISTR 357 (P. aeruginosa TISTR 357 [1]): 2 µg/mL
MBC, E. coli TISTR 887 (E. coli TISTR 887 [2]): 2 µg/mL
MIC, E. coli TISTR 887 (E. coli TISTR 887 [2]): 2 µg/mL
duration of growth inhibition, K. pneumoniae TISTR 1383 (K. pneumoniae TISTR 1383 [3]; [13]): up to 6 h
time at which bacteria were eliminated, K. pneumoniae TISTR 1383 (K. pneumoniae TISTR 1383 [3]; [14]): 9 h
time of complete eradication, K. pneumoniae TISTR 1383 (K. pneumoniae TISTR 1383 [3]; [15]): 6 h
reduction of bacterial counts [4]: more than 3 log units
Residual Antimicrobial Activity, K. pneumoniae TISTR 1383 (K. pneumoniae TISTR 1383 [5]; [16]): 100.43 ± 0.37%
Residual Antimicrobial Activity, K. pneumoniae TISTR 1383 (K. pneumoniae TISTR 1383 [5]; [17]): 99.14 ± 1.35%
Residual Antimicrobial Activity, K. pneumoniae TISTR 1383 (K. pneumoniae TISTR 1383 [5]; [18]): 98.06 ± 2.34%
Residual Antimicrobial Activity, K. pneumoniae TISTR 1383 (K. pneumoniae TISTR 1383 [5]; [19]): 97.62 ± 2.08%
Residual Antimicrobial Activity, K. pneumoniae TISTR 1383 (K. pneumoniae TISTR 1383 [5]; [20]): 99.57 ± 2.08%
Residual Antimicrobial Activity, K. pneumoniae TISTR 1383 (K. pneumoniae TISTR 1383 [5]; [21]): 100.89 ± 0.39%
Residual Antimicrobial Activity, K. pneumoniae TISTR 1383 (K. pneumoniae TISTR 1383 [5]; [22]): 98.21 ± 4.09%
Residual Antimicrobial Activity, K. pneumoniae TISTR 1383 (K. pneumoniae TISTR 1383 [5]; [23]): 98.66 ± 4.07%
Residual Antimicrobial Activity, K. pneumoniae TISTR 1383 (K. pneumoniae TISTR 1383 [5]; [24]): 99.11 ± 1.39%
Specific Activity (E. coli TISTR 887 [6]; purification balance sheet): 835.99 AU/mg
Arbitrary Activity (E. coli TISTR 887 [6]; two-fold serial dilutions, 100 µL, agar well diffusion, AU/mL = 2^n × 1000/V): 320 AU/mL
MBC, S. aureus TISTR 517 (S. aureus TISTR 517): >128 µg/mL
MIC, S. aureus TISTR 517 (S. aureus TISTR 517): >128 µg/mL
MBC, MRSA strain 2468 (MRSA Strain 2468): >128 µg/mL
MIC, MRSA strain 2468 (MRSA Strain 2468): >128 µg/mL
Residual Antimicrobial Activity, P. aeruginosa TISTR 357 (P. aeruginosa TISTR 357 [7]; [16]): 99.58 ± 0.74%
Residual Antimicrobial Activity, P. aeruginosa TISTR 357 (P. aeruginosa TISTR 357 [7]; [17]): 99.36 ± 1.69%
Residual Antimicrobial Activity, P. aeruginosa TISTR 357 (P. aeruginosa TISTR 357 [7]; [18]): 99.36 ± 3.18%
Residual Antimicrobial Activity, P. aeruginosa TISTR 357 (P. aeruginosa TISTR 357 [7]; [19]): 98.73 ± 2.30%
Residual Antimicrobial Activity, P. aeruginosa TISTR 357 (P. aeruginosa TISTR 357 [7]; [20]): 98.30 ± 2.24%
Residual Antimicrobial Activity, P. aeruginosa TISTR 357 (P. aeruginosa TISTR 357 [7]; [21]): 98.08 ± 1.11%
Residual Antimicrobial Activity, P. aeruginosa TISTR 357 (P. aeruginosa TISTR 357 [7]; [22]): 98.51 ± 0.37%
Residual Antimicrobial Activity, P. aeruginosa TISTR 357 (P. aeruginosa TISTR 357 [7]; [23]): 98.72 ± 0.64%
Residual Antimicrobial Activity, P. aeruginosa TISTR 357 (P. aeruginosa TISTR 357 [7]; [24]): 97.22 ± 1.62%
MBC, K. pneumoniae TISTR 1383 (K. pneumoniae TISTR 1383 [8]): 4 µg/mL
MIC, K. pneumoniae TISTR 1383 (K. pneumoniae TISTR 1383 [8]): 4 µg/mL
duration of temporary growth suppression, P. aeruginosa TISTR 357 (P. aeruginosa TISTR 357 [9]; [13]): 3 h
time at which bacteria were eliminated, P. aeruginosa TISTR 357 (P. aeruginosa TISTR 357 [9]; [14]): 6 h
time of complete eradication, P. aeruginosa TISTR 357 (P. aeruginosa TISTR 357 [9]; [15]): 3 h
gel overlay inhibition of E. coli TISTR 887 (E. coli TISTR 887 [10]): An inhibition zone was observed
Residual Antimicrobial Activity, E. coli TISTR 887 (E. coli TISTR 887 [11]; [16]): 100.64 ± 2.30%
Residual Antimicrobial Activity, E. coli TISTR 887 (E. coli TISTR 887 [11]; [17]): 100.85 ± 1.95%
Residual Antimicrobial Activity, E. coli TISTR 887 (E. coli TISTR 887 [11]; [18]): 99.36 ± 2.93%
Residual Antimicrobial Activity, E. coli TISTR 887 (E. coli TISTR 887 [11]; [19]): 98.72 ± 1.28%
Residual Antimicrobial Activity, E. coli TISTR 887 (E. coli TISTR 887 [11]; [20]): 98.51 ± 1.33%
Residual Antimicrobial Activity, E. coli TISTR 887 (E. coli TISTR 887 [11]; [21]): 98.24 ± 1.67%
Residual Antimicrobial Activity, E. coli TISTR 887 (E. coli TISTR 887 [11]; [22]): 99.12 ± 1.02%
Residual Antimicrobial Activity, E. coli TISTR 887 (E. coli TISTR 887 [11]; [23]): 98.89 ± 2.03%
Residual Antimicrobial Activity, E. coli TISTR 887 (E. coli TISTR 887 [11]; [24]): 98.46 ± 1.55%
duration of temporary growth suppression, E. coli TISTR 887 (E. coli TISTR 887 [12]; [13]): 3 h
time at which bacteria were eliminated, E. coli TISTR 887 (E. coli TISTR 887 [12]; [14]): 12 h
time of complete eradication, E. coli TISTR 887 (E. coli TISTR 887 [12]; [15]): 6 h
